Reference: patent US8404689B2, “Heterocyclic amide compounds useful as kinase inhibitors” (Bristol-Myers Squibb Company, priority 2006, dated 2013)

Each compound was assayed against T1, p38alpha (Homo sapiens, UniProt Q16539) (assay: p38α Assay (Caliper LabChip, fluoresceinated peptide)). Conditions: ratio of p38 beta IC50 to p38 alpha IC50; higher numbers indicate greater alpha selectivity.
T1 construct: GST (N); made in house; host or cells: E. coli (pGEX vector)
Assay type: biochemical

T1 sequence (Q16539 whole entry): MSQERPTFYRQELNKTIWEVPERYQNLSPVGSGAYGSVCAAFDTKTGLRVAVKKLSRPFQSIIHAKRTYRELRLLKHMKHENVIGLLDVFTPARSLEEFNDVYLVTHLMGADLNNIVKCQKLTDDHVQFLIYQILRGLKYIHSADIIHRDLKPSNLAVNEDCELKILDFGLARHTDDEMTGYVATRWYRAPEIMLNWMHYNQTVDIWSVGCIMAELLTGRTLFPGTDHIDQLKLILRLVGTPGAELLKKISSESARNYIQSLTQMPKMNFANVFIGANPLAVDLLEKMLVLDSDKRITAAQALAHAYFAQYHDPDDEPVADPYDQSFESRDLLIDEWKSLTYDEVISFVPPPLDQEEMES

Row | beta/alpha (alpha selectivity) | SMILES
1 | 228 | COc1ccc(-c2ccc(C(=O)Nc3cc(C(=O)NC4CC4)ccc3C)s2)c(OC)c1 [Example 153, N-(5-(cyclopropylcarbamoyl)-2-methylphenyl)-5-(2,4-dimethoxyphenyl)thiophene-2-carboxamide]
2 | 379 | Cc1ccc(C(=O)NC2CC2)cc1NC(=O)c1cc(-c2cccnc2)cs1 [Example 204, N-(5-(Cyclopropylcarbamoyl)-2-methylphenyl)-4-(pyridin-3-yl)thiophene-2-carboxamide]
3 | 257 | Cc1ccc(C(=O)NC2CC2)cc1NC(=O)c1ccc(-c2ccc(F)nc2)s1 [Example 169, N-(5-(cyclopropylcarbamoyl)-2-methylphenyl)-5-(6-fluoropyridin-3-yl)thiophene-2-carboxamide]
4 | 248 | Cc1ccc(C(=O)NC2CC2)cc1NC(=O)c1ccc(-c2cccc(C(=O)O)c2)s1 [Example 146, 3-(5-(5-(cyclopropylcarbamoyl)-2-methylphenylcarbamoyl)thiophen-2-yl)benzoicacid]
5 | 423 | Cc1ccc(C(=O)NC2CC2)cc1NC(=O)c1ccc2c(C#N)cn(C)c2c1 [Example 223, 3-Cyano-N-(5-(cyclopropylcarbamoyl)-2-methylphenyl)-1-methyl-1H-indole-6-carboxamide]
6 | 233 | Cc1ccc(C(=O)NC2CC2)cc1NC(=O)c1ccc(-c2cccc(CO)c2)s1 [Example 160, N-(5-(cyclopropylcarbamoyl)-2-methylphenyl)-5-(3-(hydroxymethyl)phenyl)thiophene-2-carboxamide]
7 | 118 | Cc1ccc(C(=O)NC2CC2)cc1NC(=O)c1ccc(-c2ccc(C(=O)NC(C)C)cc2)s1 [Example 182, N-(5-(cyclopropylcarbamoyl)-2-methylphenyl)-5-(4-(isopropylcarbamoyl)phenyl)thiophene-2-carboxamide]
8 | 540 | Cc1ccc(C(=O)NC2CC2)cc1NC(=O)c1c[nH]c2ccccc12 [Example 221, N-(5-(cyclopropylcarbamoyl)-2-methylphenyl)-1H-indole-3-carboxamide]
9 | 448 | Cc1ccc(C(=O)NC2CC2)cc1NC(=O)c1ccc2ccn(CCN3CCOCC3)c2c1 [Example 225, N-(5-(Cyclopropylcarbamoyl)-2-methylphenyl)-1-(2-morpholinoethyl)-1H-indole-6-carboxamide]
10 | 162 | Cc1ccc(C(=O)NC2CC2)cc1NC(=O)c1ccc(-c2ccc(C(N)=O)cc2)s1 [Example 185, 5-(4-carbamoylphenyl)-N-(5-(cyclopropylcarbamoyl)-2-methylphenyl)thiophene-2-carboxamide]
11 | 433 | Cc1ccc(C(=O)NC2CC2)cc1NC(=O)c1ccc(-c2ncccc2C(F)(F)F)s1 [Example 210, N-(5-(Cyclopropylcarbamoyl)-2-methylphenyl)-5-(3-(trifluoromethyl)pyridin-2-yl)thiophene-2-carboxamide]
12 | 240 | CCNC(=O)c1ccc(-c2ccc(C(=O)Nc3cc(C(=O)NC4CC4)ccc3C)s2)cc1 [Example 181, N-(5-(cyclopropylcarbamoyl)-2-methylphenyl)-5-(4-(ethylcarbamoyl)phenyl)thiophene-2-carboxamide]
13 | 225 | Cc1ccc(C(=O)NC2CC2)cc1NC(=O)c1ccc(-c2ccc[n+]([O-])c2)s1 [Example 196, 3-(5-(5-(Cyclopropylcarbamoyl)-2-methylphenylcarbamoyl)thiophen-2-yl)pyridine 1-oxide]
14 | 200 | Cc1ccc(C(=O)NC2CC2)cc1NC(=O)c1ccc(-c2cccc(N)c2)s1 [Example 159, 5-(3-aminophenyl)-N-(5-(cyclopropylcarbamoyl)-2-methylphenyl)thiophene-2-carboxamide]
15 | 160 | Cc1ccc(C(=O)NC2CC2)cc1NC(=O)c1ccc(-c2cc(F)cc(F)c2)s1 [Example 148, N-(5-(cyclopropylcarbamoyl)-2-methylphenyl)-5-(3,5-difluorophenyl)thiophene-2-carboxamide]
